Patent US11117900B2 (Vertex Pharmaceuticals Incorporated, priority 2012, dated 2021)

System: HCT116 colorectal cancer cells
Assay: Cisplatin sensitization assay (96 h MTS cell viability);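 also: compound concentration needed to lower the IC50 of Cisplatin alone by a set fold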
Assay type: cell-based
Conditions: Cisplatin sensitization value
Procedure, shortened: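 HCT116 cells were dosed simultaneously with compound and cisplatin as a full matrix of 2-fold serial dilutions from 10 μM top final concentration. Incubation was 96 h at 37° C., 5% CO2, followed by 1 h with MTS reagent for the viability read-out. Sensitization values were binned into +++, ++ and + categories.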

SMILES	Cisplatin Sensitization Assay
Cc1cncc(NC(=O)c2c(N)nn3cc(F)cnc23)c1N1CCC(C(=O)N2CCNCC2)CC1 [I-G-56, 2-amino-6-fluoro-N-(5-methyl-4-(4-(piperazine-1-carbonyl)piperidin-1-yl)pyridin-3-yl)pyrazolo[1,5-a]pyrimidine-3-carboxamide]	+++ (Compounds with a Cisplatin sensitization value of <0.02 μM are marked with “+++.”)
Nc1nn2cc(F)cnc2c1C(=O)Nc1cncc(F)c1N1CCC(C(=O)N2CC(N3CCCCC3)C2)CC1 [I-G-57, 2-amino-6-fluoro-N-(5-fluoro-4-(4-(3-(piperidin-1-yl)azetidine-1-carbonyl)piperidin-1-yl)pyridin-3-yl)pyrazolo[1,5-a]pyrimidine-3-carboxamide]	+++ (Compounds with a Cisplatin sensitization value of <0.02 μM are marked with “+++.”)
Nc1nn2cc(F)cnc2c1C(=O)Nc1cncc(F)c1N1CCC(C(=O)N2CC[C@H](N3CCCC3)C2)CC1 [I-G-58, (S)—N-(4-(4-([1,3′-bipyrrolidine]-1′-carbonyl)piperidin-1-yl)-5-fluoropyridin-3-yl)-2-amino-6-fluoropyrazolo[1,5-a]pyrimidine-3-carboxamide]	+++ (Compounds with a Cisplatin sensitization value of <0.02 μM are marked with “+++.”)
Nc1nn2cc(F)cnc2c1C(=O)Nc1cncc(F)c1N1CCC(C(=O)N2CCC(N3CCCC3)CC2)CC1 [I-G-59, 2-amino-6-fluoro-N-(5-fluoro-4-(4-(4-(pyrrolidin-1-yl)piperidine-1-carbonyl)piperidin-1-yl)pyridin-3-yl)pyrazolo[1,5-a]pyrimidine-3-carboxamide]	+++ (Compounds with a Cisplatin sensitization value of <0.02 μM are marked with “+++.”)
Nc1nn2cc(F)cnc2c1C(=O)Nc1cncc(F)c1N1CCC(C(=O)N2CCC(N3CCCCC3)CC2)CC1 [I-G-60, N-(4-(4-([1,4′-bipiperidine]-1′-carbonyl)piperidin-1-yl)-5-fluoropyridin-3-yl)-2-amino-6-fluoropyrazolo[1,5-a]pyrimidine-3-carboxamide]	+++ (Compounds with a Cisplatin sensitization value of <0.02 μM are marked with “+++.”)
C[C@H]1CN(C(=O)C2CCN(c3c(F)cncc3NC(=O)c3c(N)nn4cc(F)cnc34)CC2)CCN1 [I-G-61, (S)-2-amino-6-fluoro-N-(5-fluoro-4-(4-(3-methylpiperazine-1-carbonyl)piperidin-1-yl)pyridin-3-yl)pyrazolo[1,5-a]pyrimidine-3-carboxamide]	+++ (Compounds with a Cisplatin sensitization value of <0.02 μM are marked with “+++.”)
Nc1nn2cc(F)cnc2c1C(=O)Nc1cncc(F)c1N1CCC(C(=O)N2CCNC3CC32)CC1 (stereo not drawn) [I-G-62, N-(4-(4-(2,5-diazabicyclo[4.1.0]heptane-2-carbonyl)piperidin-1-yl)-5-fluoropyridin-3-yl)-2-amino-6-fluoropyrazolo[1,5-a]pyrimidine-3-carboxamide]	+++ (Compounds with a Cisplatin sensitization value of <0.02 μM are marked with “+++.”)
CC1(O)CN(C(=O)C2CCN(c3c(F)cncc3NC(=O)c3c(N)nn4cc(F)cnc34)CC2)C1 [I-G-63, 2-amino-6-fluoro-N-(5-fluoro-4-(4-(3-hydroxy-3-methylazetidine-1-carbonyl)piperidin-1-yl)pyridin-3-yl)pyrazolo[1,5-a]pyrimidine-3-carboxamide]	+++ (Compounds with a Cisplatin sensitization value of <0.02 μM are marked with “+++.”)
Nc1nn2cc(F)cnc2c1C(=O)Nc1cncc(F)c1N1CCC(C(=O)N2CCC(N3CCCCC3)C2)CC1 (stereo not drawn) [I-G-64, 2-amino-6-fluoro-N-(5-fluoro-4-(4-(3-(piperidin-1-yl)pyrrolidine-1-carbonyl)piperidin-1-yl)pyridin-3-yl)pyrazolo[1,5-a]pyrimidine-3-carboxamide]	+++ (Compounds with a Cisplatin sensitization value of <0.02 μM are marked with “+++.”)
CN1CCN(C(=O)C2CCN(c3c(F)cncc3NC(=O)c3c(N)nn4cc(F)cnc34)CC2)C2CC21 (stereo not drawn) [I-G-65, 2-amino-6-fluoro-N-(5-fluoro-4-(4-(5-methyl-2,5-diazabicyclo[4.1.0]heptane-2-carbonyl)piperidin-1-yl)pyridin-3-yl)pyrazolo[1,5-a]pyrimidine-3-carboxamide]	+++ (Compounds with a Cisplatin sensitization value of <0.02 μM are marked with “+++.”)
Nc1nn2cc(F)cnc2c1C(=O)Nc1cncc(Cl)c1N1CCC(C(=O)N2CCN3CCC2CC3)CC1 [I-G-66, N-(4-(4-(1,4-diazabicyclo[3.2.2]nonane-4-carbonyl)piperidin-1-yl)-5-chloropyridin-3-yl)-2-amino-6-fluoropyrazolo[1,5-a]pyrimidine-3-carboxamide]	+++ (Compounds with a Cisplatin sensitization value of <0.02 μM are marked with “+++.”)
Nc1nn2cc(F)cnc2c1C(=O)Nc1cncc(F)c1N1CCC(C(=O)N2CCC(N3CCC3)CC2)CC1 [I-G-68, 2-amino-N-(4-(4-(4-(azetidin-1-yl)piperidine-1-carbonyl)piperidin-1-yl)-5-fluoropyridin-3-yl)-6-fluoropyrazolo[1,5-a]pyrimidine-3-carboxamide]	+++ (Compounds with a Cisplatin sensitization value of <0.02 μM are marked with “+++.”)
Nc1nn2cc(F)cnc2c1C(=O)Nc1cncc(Cl)c1N1CCC(C(=O)N2CCN3CCC2C3)CC1 (stereo not drawn) [I-G-69, N-(4-(4-(1,4-diazabicyclo[3.2.1]octane-4-carbonyl)piperidin-1-yl)-5-chloropyridin-3-yl)-2-amino-6-fluoropyrazolo[1,5-a]pyrimidine-3-carboxamide]	+++ (Compounds with a Cisplatin sensitization value of <0.02 μM are marked with “+++.”)
Nc1nn2cc(F)cnc2c1C(=O)Nc1cncc(F)c1N1CCC(C(=O)N2CC3(COC3)C2)CC1 [I-G-72, N-(4-(4-(2-oxa-6-azaspiro[3.3]heptane-6-carbonyl)piperidin-1-yl)-5-fluoropyridin-3-yl)-2-amino-6-fluoropyrazolo[1,5-a]pyrimidine-3-carboxamide]	+++ (Compounds with a Cisplatin sensitization value of <0.02 μM are marked with “+++.”)
Nc1nn2cc(F)cnc2c1C(=O)Nc1cncc(F)c1N1CCC(C(=O)N2CC(F)(F)C2)CC1 [I-G-73, 2-amino-N-(4-(4-(3,3-difluoroazetidine-1-carbonyl)piperidin-1-yl)-5-fluoropyridin-3-yl)-6-fluoropyrazolo[1,5-a]pyrimidine-3-carboxamide]	+++ (Compounds with a Cisplatin sensitization value of <0.02 μM are marked with “+++.”)
Nc1nn2cc(F)cnc2c1C(=O)Nc1cncc(F)c1N1CCC(C(=O)N2CC(F)C2)CC1 [I-G-74, 2-amino-6-fluoro-N-(5-fluoro-4-(4-(3-fluoroazetidine-1-carbonyl)piperidin-1-yl)pyridin-3-yl)pyrazolo[1,5-a]pyrimidine-3-carboxamide]	+++ (Compounds with a Cisplatin sensitization value of <0.02 μM are marked with “+++.”)
COC1(C)CN(C(=O)C2CCN(c3c(F)cncc3NC(=O)c3c(N)nn4cc(F)cnc34)CC2)C1 [I-G-75, 2-amino-6-fluoro-N-(5-fluoro-4-(4-(3-methoxy-3-methylazetidine-1-carbonyl)piperidin-1-yl)pyridin-3-yl)pyrazolo[1,5-a]pyrimidine-3-carboxamide]	+++ (Compounds with a Cisplatin sensitization value of <0.02 μM are marked with “+++.”)
N#CC1CN(C(=O)C2CCN(c3c(F)cncc3NC(=O)c3c(N)nn4cc(F)cnc34)CC2)C1 [I-G-76, 2-amino-N-(4-(4-(3-cyanoazetidine-1-carbonyl)piperidin-1-yl)-5-fluoropyridin-3-yl)-6-fluoropyrazolo[1,5-a]pyrimidine-3-carboxamide]	+++ (Compounds with a Cisplatin sensitization value of <0.02 μM are marked with “+++.”)
Nc1nn2cc(F)cnc2c1C(=O)Nc1cnccc1N1CCC(C(=O)N2CCC2)CC1 [I-G-77, 2-amino-N-(4-(4-(azetidine-1-carbonyl)piperidin-1-yl)pyridin-3-yl)-6-fluoropyrazolo[1,5-a]pyrimidine-3-carboxamide]	+++ (Compounds with a Cisplatin sensitization value of <0.02 μM are marked with “+++.”)
COC1CN(C(=O)C2CCN(c3ccncc3NC(=O)c3c(N)nn4cc(F)cnc34)CC2)C1 [I-G-78, 2-amino-6-fluoro-N-(4-(4-(3-methoxyazetidine-1-carbonyl)piperidin-1-yl)pyridin-3-yl)pyrazolo[1,5-a]pyrimidine-3-carboxamide]	+++ (Compounds with a Cisplatin sensitization value of <0.02 μM are marked with “+++.”)
COC1(C)CN(C(=O)C2CCN(c3ccncc3NC(=O)c3c(N)nn4cc(F)cnc34)CC2)C1 [I-G-79, 2-amino-6-fluoro-N-(4-(4-(3-methoxy-3-methylazetidine-1-carbonyl)piperidin-1-yl)pyridin-3-yl)pyrazolo[1,5-a]pyrimidine-3-carboxamide]	+++ (Compounds with a Cisplatin sensitization value of <0.02 μM are marked with “+++.”)
Nc1nn2cc(F)cnc2c1C(=O)Nc1cnccc1N1CCC(C(=O)N2CC(F)(F)C2)CC1 [I-G-80, 2-amino-N-(4-(4-(3,3-difluoroazetidine-1-carbonyl)piperidin-1-yl)pyridin-3-yl)-6-fluoropyrazolo[1,5-a]pyrimidine-3-carboxamide]	+++ (Compounds with a Cisplatin sensitization value of <0.02 μM are marked with “+++.”)
N#CC1CN(C(=O)C2CCN(c3ccncc3NC(=O)c3c(N)nn4cc(F)cnc34)CC2)C1 [I-G-81, 2-amino-N-(4-(4-(3-cyanoazetidine-1-carbonyl)piperidin-1-yl)pyridin-3-yl)-6-fluoropyrazolo[1,5-a]pyrimidine-3-carboxamide]	+++ (Compounds with a Cisplatin sensitization value of <0.02 μM are marked with “+++.”)
Nc1nn2cc(F)cnc2c1C(=O)Nc1cnccc1N1CCC(C(=O)N2CC(F)C2)CC1 [I-G-82, 2-amino-6-fluoro-N-(4-(4-(3-fluoroazetidine-1-carbonyl)piperidin-1-yl)pyridin-3-yl)pyrazolo[1,5-a]pyrimidine-3-carboxamide]	+++ (Compounds with a Cisplatin sensitization value of <0.02 μM are marked with “+++.”)
